Test results as given in patent publication US20240166652A1, “MODULATORS OF THE INTEGRATED STRESS PATHWAY” (Calico Life Sciences LLC, priority 2017, published 2024).
pEC50: −log10 of the molar value.

Test system: ATF4 luciferase reporter in HEK293T cells
Experiment: ATF4-Luc assay (ATF4 luciferase reporter, tunicamycin-treated HEK293T cells)
Assay type: cell-based, human
Conditions: Homo sapiens, HEK-293T; HEK293T cells carrying the ATF4 luciferase reporter, 1 μg/mL tunicamycin, 7 hours

First: CN1C(=O)C2(NC(=O)COc3ccc(Cl)c(F)c3)CCC1(NC(=O)COc1ccc(Cl)c(F)c1)CC2 [Compound 605, N,N′-(2-methyl-3-oxo-2-azabicyclo[2.2.2]octane-1,4-diyl)bis[2-(4-chloro-3-fluorophenoxy)acetamide]]
Second: O=C(COc1ccc(Cl)c(F)c1)NC12CCC(NC(=O)COc3ccc(Cl)c(F)c3)(CC1=O)C(=O)C2 [Compound 561, N,N′-(2,5-dioxobicyclo[2.2.2]octane-1,4-diyl)bis[2-(4-chloro-3-fluorophenoxy)acetamide]]
The pEC50 of the first is lower: 6.60 to 7.30 for the first, over 8.00 for the second. The second is the more potent here.

`O=C(COc1ccc(Cl)c(F)c1)NC12CCC(NC(=O)COc3ccc(C(F)(F)F)nc3)(CC1)C(O)C2` (racemic) [Compound 301, 2-(4-chloro-3-fluorophenoxy)-N-[3-hydroxy-4-(2-{[6-(trifluoromethyl)pyridin-3-yl]oxy}acetamido)bicyclo[2.2.2]octan-1-yl]acetamide] and `O=C(COc1ccc(C(F)(F)F)nc1)NC12CCC(NC(=O)COc3ccc(Cl)c(Cl)c3)(CC1)[C@@H](O)C2` [Compound 583, 2-(3,4-dichlorophenoxy)-N-[(2S)-2-hydroxy-4-(2-{[6-(trifluoromethyl)pyridin-3-yl]oxy}acetamido)bicyclo[2.2.2]octan-1-yl]acetamide] cannot be ordered by pEC50: over 8.00 for the first, over 8.00 for the second.

First: Cc1cc(OCC(=O)NC23CCC(NC(=O)COc4ccc(Cl)c(F)c4)(CC2)C[C@@H]3O)cc(C)c1C [Compound 503, 2-(4-chloro-3-fluorophenoxy)-N-{(3S)-3-hydroxy-4-[2-(3,4,5-trimethylphenoxy)acetamido]bicyclo[2.2.2]octan-1-yl]acetamide]
Second: Cc1ccc(OCC(=O)NC23CCC(NC(=O)COc4ccc(Cl)c(F)c4)(CC2)C[C@@H]3O)cc1 [Compound 521, 2-(4-chloro-3-fluorophenoxy)-N-{(3S)-3-hydroxy-4-[2-(4-methylphenoxy)acetamido]bicyclo[2.2.2]octan-1-yl}acetamide]
The pEC50 of the first is lower: 7.30 to 8.00 for the first, over 8.00 for the second. The second is the more potent here.

First: CC(C)(C)c1ccc(OCC(=O)NC23CC(NC(=O)COc4ccc(Cl)c(F)c4)(C2)C3)cn1 [Compound 221, 2-[(6-tert-butylpyridin-3-yl)oxy]-N-{3-[2-(4-chloro-3-fluorophenoxy)acetamido]bicyclo[1.1.1]pentan-1-yl}acetamide]
Second: Cc1ccc(OCC(=O)NC23CC(NC(=O)COc4ccc(Cl)c(F)c4)(C2)C3)cn1 [Compound 206, 2-(4-chloro-3-fluorophenoxy)-N-(3-{2-[(6-methylpyridin-3-yl)oxy]acetamido}bicyclo[1.1.1]pentan-1-yl)acetamide]
The pEC50 of the first is lower: 5.70 to 6.30 for the first, 6.60 to 7.30 for the second. The second is the more potent here.

Compared with `O=C(COc1ccc(C(F)(F)F)nc1)NC12CC(NC(=O)COc3ccc(C(F)(F)F)nc3)(C1)C2` [Compound 400, N,N′-(bicyclo[1.1.1]pentane-1,3-diyl)bis(2-{[6-(trifluoromethyl)pyridin-3-yl]oxy}acetamide)], `O=C(COc1ccc(S(F)(F)(F)(F)F)nc1)NC12CC(NC(=O)COc3ccc(Cl)c(F)c3)(C1)C2` [Compound 332, 2-(4-chloro-3-fluorophenoxy)-N-[3-(2-{[6-(pentafluoro-X 6-sulfanyl)pyridin-3-yl]oxy}acetamido)bicyclo[1.1.1]pentan-1-yl]acetamide] is higher in pEC50: 6.60 to 7.30 for the first, 7.30 to 8.00 for the second. The second is the more potent here.

`O=C(COc1ccc(F)c(C(F)(F)F)c1)NC12CCC(NC(=O)COc3ccc(F)cc3)(CC1)[C@@H](O)C2` [Compound 847, 2-(4-fluorophenoxy)-N-[(2S)-4-{2-[4-fluoro-3-(trifluoromethyl)phenoxy]acetamido}-2-hydroxybicyclo[2.2.2]octan-1-yl]acetamide] and `O=C(COc1ccc(C(F)(F)F)c(F)c1)NC12CCC(NC(=O)COc3ccc(F)c(F)c3)(CC1)[C@@H](O)C2` [Compound 842, 2-(3,4-difluorophenoxy)-N-[(2S)-4-{2-[3-fluoro-4-(trifluoromethyl)phenoxy]acetamido}-2-hydroxybicyclo[2.2.2]octan-1-yl]acetamide] cannot be ordered by pEC50: over 8.00 for the first, over 8.00 for the second.

`O=C(COc1ccc(F)c(C(F)(F)F)c1)NC12CCC(NC(=O)COc3ccc(F)c(C(F)(F)F)c3)(CC1)[C@@H](O)C2` [Compound 823, N,N′-[(2S)-2-hydroxybicyclo[2.2.2]octane-1,4-diyl]bis{2-[4-fluoro-3-(trifluoromethyl)phenoxy]acetamide}] and `Cc1cc(OCC(=O)NC23CCC(NC(=O)COc4ccc(C(F)(F)F)c(F)c4)(CC2)C[C@@H]3O)ccc1Cl` [Compound 841, 2-(4-chloro-3-methylphenoxy)-N-[(2S)-4-{2-[3-fluoro-4-(trifluoromethyl)phenoxy]acetamido}-2-hydroxybicyclo[2.2.2]octan-1-yl]acetamide] cannot be ordered by pEC50: over 8.00 for the first, over 8.00 for the second.

Compared with `O=C(COc1ccc(Cl)c(F)c1)NC12CC(NS(=O)(=O)CCOc3ccccc3)(C1)C2` [Compound 488, 2-(4-chloro-3-fluorophenoxy)-N-{3-[(2-phenoxyethanesulfonyl)amino]bicyclo[1.1.1]pentan-1-yl}acetamide], `N#Cc1ccc(CS(=O)(=O)NC23CC(NC(=O)COc4ccc(Cl)c(F)c4)(C2)C3)cc1` [Compound 490, 2-(4-chloro-3-fluorophenoxy)-N-(3-{[(4-cyanophenyl)methanesulfonyl]amino}bicyclo[1.1.1]pentan-1-yl)acetamide] is higher in pEC50: under 5.70 for the first, 5.70 to 6.30 for the second. The second is the more potent here.

Compared with `COc1ncc(OCC(=O)NC23CCC(NC(=O)COc4ccc(Cl)c(F)c4)(CC2)C(=O)C3)cn1` [Compound 655, 2-(4-chloro-3-fluorophenoxy)-N-(4-{2-[(2-methoxypyrimidin-5-yl)oxy]acetamido}-2-oxobicyclo[2.2.2]octan-1-yl)acetamide], `COc1ncc(OCC(=O)NC23CCC(NC(=O)COc4ccc(F)cc4)(CC2)[C@@H](O)C3)cn1` [Compound 631, 2-(4-fluorophenoxy)-N-[(2S)-2-hydroxy-4-{2-[(2-methoxypyrimidin-5-yl)oxy]acetamido}bicyclo[2.2.2]octan-1-yl]acetamide] is lower in pEC50: 7.30 to 8.00 for the first, 6.60 to 7.30 for the second. The first is the more potent here.

First: Cc1ccc(CC(=O)NC23CC(NC(=O)COc4ccc(Cl)c(F)c4)(C2)C3)cn1 [Compound 210, 2-(4-chloro-3-fluorophenoxy)-N-{3-[2-(6-methylpyridin-3-yl)acetamido]bicyclo[1.1.1]pentan-1-yl}acetamide]
Second: O=C(COc1ccc(C2CC2)nc1)NC12CC(NC(=O)COc3ccc(Cl)c(F)c3)(C1)C2 [Compound 251, 2-(4-chloro-3-fluorophenoxy)-N-(3-{2-[(6-cyclopropylpyridin-3-yl)oxy]acetamido}bicyclo[1.1.1]pentan-1-yl)acetamide]
The pEC50 of the first is lower: under 5.70 for the first, 7.30 to 8.00 for the second.

First: COCC(=O)Nc1cc(Cl)ccc1OCC(=O)NC12CC(NC(=O)COc3ccc(Cl)c(F)c3)(C1)C2 [Compound 800, 2-(4-chloro-3-fluorophenoxy)-N-(3-{2-[4-chloro-2-(2-methoxyacetamido)phenoxy]acetamido}bicyclo[1.1.1]pentan-1-yl)acetamide]
Second: O=C(O)CN(CC(=O)NC12CC(NC(=O)COc3ccc(Cl)c(F)c3)(C1)C2)c1ccc(Cl)cc1 [Compound 684, {[2-({3-[2-(4-chloro-3-fluorophenoxy)acetamido]bicyclo[1.1.1]pentan-1-yl}amino)-2-oxoethyl](4-chlorophenyl)amino}acetic Acid]
The pEC50 of the first is higher: 6.60 to 7.30 for the first, under 5.70 for the second.

First: O=C(COc1ccc2c(c1)OC(F)(F)O2)NC12CCC(NC(=O)COc3ccc4c(c3)OC(F)(F)O4)(CC1)C2 [Compound 531, N,N′-(bicyclo[2.2.1]heptane-1,4-diyl)bis{2-[(2,2-difluoro-2H-1,3-benzodioxol-5-yl)oxy]acetamide}]
Second: O=C(COc1ccc(F)c(F)c1)NC12CCC(NC(=O)COc3ccc4c(c3)OC(F)(F)O4)(CC1)C(O)C2 (stereo not shown) [Compound 362, 2-[(2,2-difluoro-2H-1,3-benzodioxol-5-yl)oxy]-N-{4-[2-(3,4-difluorophenoxy)acetamido]-2-hydroxybicyclo[2.2.2]octan-1-yl}acetamide]
The pEC50 of the first is lower: 6.30 to 6.60 for the first, over 8.00 for the second. The second is the more potent here.

`O=C(COc1ccc(Cl)c(F)c1)NC12CCC(NC(=O)OCc3ccccc3)(C1)C2` [Compound 180, benzyl {4-[2-(4-chloro-3-fluorophenoxy)acetamido]bicyclo[2.1.1]hexan-1-yl}carbamate] and `O=C(COc1ccc(Cl)c(Cl)c1)NC12CC(NC(=O)OCCc3cccc(Cl)c3)(C1)C2` [Compound 173, 2-(3-chlorophenyl)ethyl {3-[2-(3,4-dichlorophenoxy)acetamido]-bicyclo[1.1.1]pentan-1-yl}carbamate] fall in the same range of pEC50: 6.60 to 7.30 for the first, 6.60 to 7.30 for the second.

First: O=C(COc1ccc2c(c1)OC(F)(F)O2)NC12CCC(NC(=O)COc3ccc(OC(F)(F)F)cc3)(CC1)[C@@H](O)C2 [Compound 786, 2-[(2,2-difluoro-2H-1,3-benzodioxol-5-yl)oxy]-N-[(3S)-3-hydroxy-4-{2-[4-(trifluoromethoxy)phenoxy]acetamido}bicyclo[2.2.2]octan-1-yl]acetamide]
Second: CCOc1ccc(OCC(=O)NC23CCC(NC(=O)COc4ccc(Cl)c(F)c4)(CC2)[C@@H](O)C3)cc1 [Compound 464, 2-(4-chloro-3-fluorophenoxy)-N-{(2S)-4-[2-(4-ethoxyphenoxy)acetamido]-2-hydroxybicyclo[2.2.2]octan-1-yl}acetamide]
The pEC50 of the first is higher: over 8.00 for the first, 7.30 to 8.00 for the second. The first is the more potent here.

First: O=C(COc1ccc(Cl)c(F)c1)NC12CC(NC(=O)[C@H](O)c3ccc(Cl)cc3)(C1)C2 [Compound 315, (2R)—N-{3-[2-(4-chloro-3-fluorophenoxy)acetamido]bicyclo[1.1.1]pentan-1-yl}-2-(4-chlorophenyl)-2-hydroxyacetamide]
Second: Cc1ccc(COCC(=O)NC23CC(NC(=O)COc4ccc(Cl)c(Cl)c4)(C2)C3)cc1 [Compound 160, 2-(3,4-dichlorophenoxy)-N-(3-{2-[(4-methylphenyl)methoxy]-acetamido}bicyclo[1.1.1]pentan-1-yl)acetamide]
The pEC50 of the first is lower: 5.70 to 6.30 for the first, 6.60 to 7.30 for the second. The second is the more potent here.

With `O=C(COc1ccc(Cl)c(F)c1)NC12CCC(NC(=O)COc3ccc(Cl)c(Cl)c3)(CC1)[C@@H](O)C2` [Compound 452, 2-(4-chloro-3-fluorophenoxy)-N-{(3S)-4-[2-(3,4-dichlorophenoxy)acetamido]-3-hydroxybicyclo[2.2.2]octan-1-yl}acetamide] the pEC50 was over 8.00.
